Columns and labels:
CYP2C8 = CYP2C8 (Homo sapiens, UniProt P10632); assay: CYP450 inhibition in pooled human liver microsomes, CYP2C8; format: in vitro ADME; conditions: read-out: Ki, direct inhibition of CYP2C8
From the text: In addition, there was little or no evidence of metabolism-dependent inhibition of any of the enzymes tested.

[1] = test system: phosphorylation of IκBα in HeLa cells; assay: TNF-α-induced phosphorylation of IκBα in HeLa (Western); format: cell-based, human; conditions: 6 h pretreatment, TNF-α 20 ng/mL 5 min
Protocol: Total and phosphorylated levels of IκBα were evaluated by Western blot. Primary IκBα antibodies were from Santa-Cruz (sc-371), pIκBα antibody was from Cell Signaling (9246), actin antibody was from Millipore (MAB 1501). Peroxidase-conjugated affini-pure Goat anti-Rabbit (IgG) and peroxidase-conjugated affini-pure Goat anti-Mouse IgG secondary antibodies were purchased from Jackson ImmunoResearch. Protein blots were developed using ECL, and exposed to X-ray film.

[2] = test system: total glutathione in AML-12 hepatocyte cell line; assay: Total glutathione (GSH-Glo) in AML-12; format: cell-based, mouse; conditions: AML-12, 24 h, 15.6 nM
From the text: Glutathione and NADPH are critical factors required for the maintenance of cellular redox capacity. […] Data shown are representative of two independent experiments.

[3] = Oral pharmacokinetics in rats; format: in vivo, rat; conditions: oral suspension, 10 to 100 mg/kg
Protocol: (§1) Measurements were performed on TQD and QToF mass spectrometers (Waters).
(§2) Following oral administration of a suspension formulation at doses of 10 to 100 mg/kg, maximal concentrations were observed within 1 to 2 h in mice, and within 1 to 24 h in rats and monkeys.

[4] = Plasma protein binding (ultracentrifugation), rat
[5] = Metabolism in human liver microsomes; format: in vitro ADME; conditions: 60-min incubation, NADPH and UGT
[6] = Oral pharmacokinetics in monkeys; format: in vivo, monkey; conditions: oral suspension, 10 to 100 mg/kg
Protocol: as §1, §2

[7] = test system: NQO1 and HMOX1 protein in BV2 cells; assay: Western blot of Nrf2 target proteins in BV2; format: cell-based, mouse; conditions: BV2, 24 h
Protocol: SH-SY5Y cells were plated in 6-well plates at a density of 4×10^5 cells per well. BV-2 cells were plated in 6-well plates at a density of 2.5×10^4 cells per well. […] Following treatment, cells were washed twice with cold PBS and harvested in lysis buffer. Cells were sonicated and debris was cleared by centrifugation (10 min @ 18,000 rcf, Beckman Coulter, microfuge 18 centrifuge). Total protein in supernatant was quantified using Bio-Rad protein reagent with BSA as a standard. Equal amounts of total cellular protein were separated on SDS-PAGE, and proteins were transferred to nitrocellulose membrane. Membranes were blocked for 1 hour in TBST (1×TBS with 0.1% Tween-20) containing 5% milk, washed 3 times with TBST, and incubated with primary antibodies overnight at 4° C. NQO1 antibody was from Abcam (#AB2346); HMOX1 (HO-1) antibody was from Santa Cruz (#sc-10789); actin antibody was from Millipore (#MAB 1501). After washing with TBST, secondary antibodies were added in TBST+5% milk for 1 h at room temperature. AffiniPure goat anti-rabbit or anti-mouse IgG secondary antibodies were from Jackson ImmunoResearch (catalog #111-035-144 and #115-035-146, respectively). Membranes were washed in TBST, developed using ECL, and exposed to X-ray film. […] HMOX1 protein was not detected in untreated or RTA 408-treated SH-SY5Y cells. […] The same amount of 63170 (54.6 nM) was required.

[8] = test system: NADPH levels in HCT-116 cells; assay: WST-1 absorbance as marker of NADPH in HCT-116; format: cell-based; conditions: HCT-116, 24 h
From the text: WST-1 absorbance is commonly used to assess cell viability by measuring glycolytic production of NAD(P)H by viable cells. Therefore, in situations where NADPH production increases in the absence of any effect on cell viability, WST-1 absorbance also increases (Berridge et al. Biochemica 4:14-19, 1996, which is incorporated herein by reference).

[9] = test system: LPS-induced NO (plasma NOx, Griess Reaction); assay: Suppression of NO in vivo after LPS in CD-1 mice; parameters: species or system mouse; conditions: LPS 5 mg/kg 24 h later
Protocol: FIG. 51—Dose-dependent suppression of NO in vivo by 63415. CD-1 mice (n=6) were dosed with DMSO or […] by oral gavage. LPS (5 mg/kg) was administered 24 h later. Twenty-four hours after LPS administration, whole blood was collected for NO assay. NO inhibition was determined by Griess Reaction from reduced, de-proteinated plasma.

[10] = test system: lactate in C2Cl2 muscle cells; assay: Lactate levels in C2Cl2 myotubes; format: cell-based, rodent; conditions: differentiated C2Cl2 myotubes; 1 μM or 2 μM, 3 h
Protocol: Buffer was removed and saved for measurement of extracellular lactate levels. Cell debris was pelleted by centrifugation (10 min at 14,000 rpm) prior to measurement of lactate. To measure intracellular lactate, cells were suspended in 0.1% Triton X-100 in PBS and lysed by shearing with a 25 gauge needle. Cell lysate was centrifuged (10 min at 14,000 rpm, 4° C.) and lactate was measured in the supernatant. Intracellular and extracellular lactate was measured using the Lactate Assay Kit (BioVision, Catalog # K607-100).

[11] = test system: cigarette smoke-induced COPD; assay: Cigarette smoke-induced COPD in mice; format: in vivo, mouse
Protocol: (a) KC; (b) IL-6; (c) TNF-α; (d) IFN-γ; (e) RANTES. […] An AIM analog (63355) was tested in the same study for comparison. Asterisks indicate a statistically significant difference form the CS control group.
At the end of the study, lung tissue and BALF were collected for analysis of inflammatory infiltrates and cytokines. […] An AIM analog (63355) was tested in the same study for comparison. 63355 is a compound of the formula: […]
Txnrd, Gst, and […] enzyme activities were measured using commercially available kits from Cayman Chemical (Ann Arbor, Mich.).

[12] = test system: radiation-induced oral mucositis; assay: Radiation-induced oral mucositis in hamsters
NQO1 activity = NQO1 activity induction in mouse liver, lung, and kidney after PO QD×3; format: in vivo; conditions: mice PO QD×3 25 mg/kg, 6 h after last dose
Protocol: FIG. 53—NQO1 activity induction in mouse liver, lung, and kidney by 63415. Mice were dosed PO QD×3 with 25 mg/kg. Tissues were collected 6 h after the last dose, and analysis of NQO1 activity was performed.

Chain of CYP2C8 (P10632 whole entry): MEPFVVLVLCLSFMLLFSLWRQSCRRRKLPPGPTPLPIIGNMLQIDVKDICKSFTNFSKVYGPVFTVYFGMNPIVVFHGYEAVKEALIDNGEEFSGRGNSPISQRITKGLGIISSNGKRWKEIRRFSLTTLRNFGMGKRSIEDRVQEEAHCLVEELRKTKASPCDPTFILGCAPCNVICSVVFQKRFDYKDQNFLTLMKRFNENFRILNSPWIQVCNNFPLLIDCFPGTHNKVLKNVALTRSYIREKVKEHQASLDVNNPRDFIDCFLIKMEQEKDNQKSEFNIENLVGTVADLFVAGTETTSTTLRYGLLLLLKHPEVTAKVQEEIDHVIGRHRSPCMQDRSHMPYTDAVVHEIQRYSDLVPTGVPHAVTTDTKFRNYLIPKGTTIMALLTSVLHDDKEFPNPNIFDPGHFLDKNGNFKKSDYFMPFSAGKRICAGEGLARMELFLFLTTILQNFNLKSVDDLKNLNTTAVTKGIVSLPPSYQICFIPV

CC1(C)CC[C@]2(NC(=O)C(C)(F)F)CC[C@]3(C)[C@H](C(=O)C=C4[C@@]5(C)C=C(C#N)C(=O)C(C)(C)[C@@H]5CC[C@]43C)[C@@H]2C1 [RTA 408, N-((4aS,6aR,6bS,8aR,12aS,14aR,14bS)-11-cyano-2,2,6a,6b,9,9,12a-heptamethyl-10,14-dioxo-1,2,3,4,4a,5,6,6a,6b,7,8,8a,9,10,12a,14,14a,14b-octadecahydropicen-4a-yl)-2,2-difluoropropanamide]
Ki (CYP2C8): ~500 nM
TNF-α-induced phosphorylation of IκBα [1]: inhibited TNF-α-induced phosphorylation of IκBα in a dose-dependent manner
Increase in total glutathione [2]: > 2 fold
Time of maximal concentrations [3]: 1 to 24 h
fraction unbound [4]: 0.05
Parent molecule remaining [5]: < 10%
Time of maximal concentrations [6]: 1 to 24 h
NQO1 and HMOX1 protein levels [7]: increased NQO1 and HMOX1 protein levels at concentrations up to 125 nM
WST-1 absorbance (marker of NADPH) [8]: increased WST-1 absorbance in a dose-dependent manner
NOx Levels (% vs LPS Controls) ([9]; 13 mg/kg oral gavage): 30%
NOx Levels (% vs LPS Controls) ([9]; 25 mg/kg oral gavage): 18%
NOx Levels (% vs LPS Controls) ([9]; 50 mg/kg oral gavage): 16%
Intracellular and extracellular lactate levels [10]: significantly increased intracellular and extracellular lactate levels in a dose-dependent manner
Lung Txnrd enzyme activity ([11]; 30 mg/kg): Txnrd enzyme activity was also induced
Lung NQO1 enzyme activity (decreased by cigarette smoke) ([11]; 3, 10, or 30 mg/kg): rescued this loss
Pro-inflammatory cytokines incl. KC and TNF-α ([11]; doses as low as 3 mg/kg daily for two weeks): significant suppression of pro-inflammatory cytokines
Reduction in ulceration ([12]; 30 mg/kg and 100 mg/kg BID×20): ≤ 36%
Euthanasia due to weight loss in excess of 20% ([12]; 100 mg/kg): two out of eight hamsters in the 100 mg/kg dose group were euthanized on Day 2
Duration of ulcerative mucositis ([12]; 30 and 100 mg/kg twice daily): significant reduction in the duration of ulcerative mucositis
NQO1 activity induction, Kidney (NQO1 activity): 10.9
NQO1 activity induction, Liver (NQO1 activity): 10.9
NQO1 activity induction, Lung (NQO1 activity): 1.75

Source: patent US9701709B2 (REATA PHARMACEUTICALS, INC., priority 2012, dated 2017)
